Measured values reported in US20160120863A1, “SLC2A TRANSPORTER INHIBITORS” (IOMET PHARMA LTD., priority 2013, published 2016).

Molecular target: T1, human GLUT1 (Homo sapiens, UniProt P11166)
T1 construct: expressed in transfected cells
T1 sequence (P11166 1-492): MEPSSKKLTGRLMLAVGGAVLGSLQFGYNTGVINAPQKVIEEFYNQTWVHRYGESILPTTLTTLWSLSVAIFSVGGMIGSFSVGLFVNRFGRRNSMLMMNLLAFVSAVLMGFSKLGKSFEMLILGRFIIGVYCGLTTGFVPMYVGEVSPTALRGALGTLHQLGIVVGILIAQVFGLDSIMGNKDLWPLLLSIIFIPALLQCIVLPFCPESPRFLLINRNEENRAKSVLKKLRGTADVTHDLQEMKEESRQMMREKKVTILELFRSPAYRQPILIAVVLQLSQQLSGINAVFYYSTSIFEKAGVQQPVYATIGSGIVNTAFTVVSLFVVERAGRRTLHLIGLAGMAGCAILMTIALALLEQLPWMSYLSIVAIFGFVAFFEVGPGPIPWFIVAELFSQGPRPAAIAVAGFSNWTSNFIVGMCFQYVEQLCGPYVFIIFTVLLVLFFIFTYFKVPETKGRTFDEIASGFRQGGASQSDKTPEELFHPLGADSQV
Assay: [3H]-deoxy-D-glucose uptake assay, GLUT1
Type: cell-based
Details: [3H]-deoxy-D-glucose uptake in HEK293 cells stably expressing human GLUT1
Description: HEK293 cells were engineered to stably express either human GLUT1, GLUT2, GLUt3 or GLUT4 by transfection with the pReceiver-Lv105 plasmid, containing either hGLUT1, hGLUT2, hGLUT3, or hGLUT4 gene constructs with lipofectamine 2000, hGLUT1- hGLUT2- hGLUT3- or hGLUT4-overexpressing polyclonal populations were isolated under purinomycin selective pressure (1 μg/ml) and maintained in Dulbecco's modified Eagle's medium supplemented with 1 μg/ml purinomycin+10% foetal bovine serum (FBS).
60,000 cells per well were seeded overnight into poly-D-lysine coasted 96-well plates. […] 90 μl of test compounds were added in glucose-free uptake buffer and cells were incubated at 37° C. for 30 min.
Cells were then washed twice with ice-cold PBS and 100 μl of Microscint-20 was added per well. Glucose uptake was quantified with a scintillation counter. The half maximal inhibitory concentration (IC50) (a measure of the effectiveness of the test compound in inhibiting glucose uptake) was determined.

SMILES	GLUT1 pIC50
O=C(c1cccc(F)c1)N1CCCN(Cc2c(-c3ccc(Cl)cc3)nc3ccc(-c4ccccc4)cn23)CC1 [Compound 169]	++ (pIC50 5.00-5.99)
Clc1ccc(-c2nc3ccc(-c4ncon4)cn3c2CN2CCOCC2)cc1 [Compound 172]	++ (pIC50 5.00-5.99)
c1ccc(-c2ccc3nc(C4CCCCC4)c(CN4CCOCC4)n3c2)cc1 [Compound 173]	++ (pIC50 5.00-5.99)
NC(=O)CN1CCN(Cc2c(-c3ccc(Cl)cc3)nc3ccc(-c4ccccc4)cn23)CC1 [Compound 174]	++ (pIC50 5.00-5.99)
Clc1ccc(-c2nc3ccc(-c4ccccc4)cn3c2CN2CCn3ncnc3C2)cc1 [Compound 175]	++ (pIC50 5.00-5.99)
Cc1cc2nc(-c3ccc(Cl)cc3)c(CN3CCOCC3)n2cc1-c1ccccc1 [Compound 176]	++ (pIC50 5.00-5.99)
Clc1ccc(-c2nc3ccc(C4=CCCC4)cn3c2CN2CCOCC2)cc1 [Compound 177]	+ (pIC50 4.00-4.99)
O=C(c1cccc(F)c1)N1CCN(Cc2c(-c3ccc(Cl)cc3)nc3ccc(C4CC4)cn23)CC1 [Compound 178]	+++ (pIC50 ≧ 6.00)
N#Cc1ccc2nc(-c3ccc(Cl)cc3)c(CN3CCOCC3)n2c1 [Compound 179]	+− (pIC50 < 4.00)
Clc1ccc(-c2nc3ccc(-c4nnn[nH]4)cn3c2CN2CCOCC2)cc1 [Compound 180]	+− (pIC50 < 4.00)
O=C(c1cnccn1)N1CCN(Cc2c(-c3ccc(Cl)cc3)nc3ccc(-c4ccccc4)cn23)CC1 [Compound 181]	+++ (pIC50 ≧ 6.00)
O=C(O)C1CCN(Cc2c(-c3ccc(Cl)cc3)nc3ccc(-c4ccccc4)cn23)CC1 [Compound 182]	+− (pIC50 < 4.00)
O=C(c1ccc(Cl)cc1)N1CCN(Cc2c(-c3ccc(Cl)cc3)nc3ccc(-c4ccccc4)cn23)CC1 [Compound 183]	+++ (pIC50 ≧ 6.00)
O=C(c1cncs1)N1CCN(Cc2c(-c3ccc(Cl)cc3)nc3ccc(-c4ccccc4)cn23)CC1 [Compound 184]	+++ (pIC50 ≧ 6.00)
O=C(c1cccc(Cl)c1)N1CCN(Cc2c(-c3ccc(Cl)cc3)nc3ccc(-c4ccccc4)cn23)CC1 [Compound 185]	++ (pIC50 5.00-5.99)
CC(=O)N1CCN(Cc2c(-c3ccc(Cl)cc3)nc3cnc(-c4ccccc4)cn23)CC1 [Compound 186]	+++ (pIC50 ≧ 6.00)
Clc1ccc(-c2nc3ccc(-c4ccccc4)cn3c2CNC2CCOCC2)cc1 [Compound 188]	++ (pIC50 5.00-5.99)
COc1cccc(-c2nc3ccc(-c4ccccc4F)cn3c2CN2CCN(C(=O)C3CCC3)CC2)c1 [Compound 189]	+++ (pIC50 ≧ 6.00)
COc1cccc(-c2nc3ccc(-c4ccccc4Cl)cn3c2CN2CCN(C(=O)C3CCC3)CC2)c1 [Compound 190]	+++ (pIC50 ≧ 6.00)
COc1cccc(-c2nc3ccc(-c4ccccc4C#N)cn3c2CN2CCN(C(=O)C3CCC3)CC2)c1 [Compound 191]	+++ (pIC50 ≧ 6.00)

SMILES	GLUT1 pIC50
COc1cccc(-c2nc3ccc(-c4ccccc4C(N)=O)cn3c2CN2CCN(C(=O)C3CCC3)CC2)c1 [Compound 192]	++ (pIC50 5.00-5.99)
N#Cc1cccc(C(=O)N2CCN(Cc3c(-c4ccc(Cl)cc4)nc4ccc(-c5ccccc5)cn34)CC2)c1 [Compound 193]	+++ (pIC50 ≧ 6.00)
CC(=O)N1CCN(Cc2c(-c3ccc(Cl)cc3)nc3ccc(C4CC4)cn23)CC1 [Compound 194]	++ (pIC50 5.00-5.99)
CCC(=O)N1CCN(Cc2c(-c3ccc(Cl)cc3)nc3ccc(C4CC4)cn23)CC1 [Compound 195]	++ (pIC50 5.00-5.99)
O=C(c1ccncc1)N1CCN(Cc2c(-c3ccc(Cl)cc3)nc3ccc(C4CC4)cn23)CC1 [Compound 196]	+++ (pIC50 ≧ 6.00)
NC1CCN(Cc2c(-c3ccc(Cl)cc3)nc3ccc(-c4ccccc4)cn23)CC1 [Compound 197]	+ (pIC50 4.00-4.99)
CN(C)C(=O)CNCc1c(-c2ccc(Cl)cc2)nc2ccc(-c3ccccc3)cn12 [Compound 198]	+ (pIC50 4.00-4.99)
FC(F)(F)c1nnc2n1CCN(Cc1c(-c3ccc(Cl)cc3)nc3ccc(-c4ccccc4)cn13)C2 [Compound 199]	++ (pIC50 5.00-5.99)
O=C(C1CCOCC1)N1CCN(Cc2c(-c3ccc(Cl)cc3)nc3ccc(-c4ccccc4)cn23)CC1 [Compound 200]	+++ (pIC50 ≧ 6.00)
O=C(C1CCC1)N1CCN(Cc2c(-c3ccc(Cl)cc3)nc3ccc(-c4ccccc4Cl)cn23)CC1 [Compound 201]	+++ (pIC50 ≧ 6.00)
O=C(C1CCC1)N1CCN(Cc2c(-c3ccc(Cl)cc3)nc3ccc(-c4ccccc4F)cn23)CC1 [Compound 202]	+++ (pIC50 ≧ 6.00)
Clc1ccc(-c2nc3ccc(Cc4ccccc4)cn3c2CN2CCOCC2)cc1 [Compound 203]	++ (pIC50 5.00-5.99)
CC(=O)Nc1ccc2nc(-c3ccc(Cl)cc3)c(CN3CCOCC3)n2c1 [Compound 204]	+− (pIC50 < 4.00)
COc1cccc(-c2nc3ccc(Br)cn3c2CN2CCN(C(=O)C3CCC3)CC2)c1 [Compound 205]	++ (pIC50 5.00-5.99)
Clc1ccc(-c2nc3ccc(-c4ccccc4)cn3c2CN2CCOCC2)cc1Cl [Compound 206]	++ (pIC50 5.00-5.99)
COc1cccc(-c2nc3ccc(C4CC4)cn3c2CN2CCN(C(=O)C3CCC3)CC2)c1 [Compound 207]	+++ (pIC50 ≧ 6.00)
COc1cccc(-c2nc3ccccn3c2CN2CCN(C(=O)C3CCC3)CC2)c1 [Compound 208]	+− (pIC50 < 4.00)
Cc1cn2c(CN3CCOCC3)c(-c3ccc(Cl)cc3)nc2cn1 [Compound 209]	+− (pIC50 < 4.00)
CC(=O)NC1CCN(Cc2c(-c3ccc(Cl)cc3)nc3ccc(-c4ccccc4)cn23)CC1 [Compound 210]	++ (pIC50 5.00-5.99)

Results, then the compound that gave them:

GLUT1 pIC50	SMILES
+− (pIC50 < 4.00)	CCOC(=O)CN1CCN(Cc2c(-c3ccc(Cl)cc3)nc3ccc(-c4ccccc4)cn23)CC1 [Compound 211]
+++ (pIC50 ≧ 6.00)	O=C(c1ccnnc1)N1CCN(Cc2c(-c3ccc(Cl)cc3)nc3ccc(-c4ccccc4)cn23)CC1 [Compound 212]
+++ (pIC50 ≧ 6.00)	N#Cc1ccccc1-c1ccc2nc(-c3ccc(Cl)cc3)c(CN3CCN(C(=O)C4CCC4)CC3)n2c1 [Compound 213]
++ (pIC50 5.00-5.99)	CS(=O)(=O)Nc1ccc2nc(-c3ccc(Cl)cc3)c(CN3CCOCC3)n2c1 [Compound 215]
+++ (pIC50 ≧ 6.00)	C=C(C)c1cn2c(CN3CCOCC3)c(-c3ccc(Cl)cc3)nc2cn1 [Compound 216]
+++ (pIC50 ≧ 6.00)	COCC(=O)N1CCN(Cc2c(-c3ccc(Cl)cc3)nc3ccc(-c4ccccc4C#N)cn23)CC1 [Compound 218]
+++ (pIC50 ≧ 6.00)	CCC(=O)N1CCN(Cc2c(-c3ccc(Cl)cc3)nc3ccc(-c4ccccc4C#N)cn23)CC1 [Compound 219]
+++ (pIC50 ≧ 6.00)	N#Cc1ccccc1-c1ccc2nc(-c3ccc(Cl)cc3)c(CN3CCN(C(=O)c4ccncc4)CC3)n2c1 [Compound 220]
+++ (pIC50 ≧ 6.00)	N#Cc1ccccc1-c1ccc2nc(-c3ccc(Cl)cc3)c(CN3CCN(C(=O)c4cnccn4)CC3)n2c1 [Compound 221]
+− (pIC50 < 4.00)	O=C(O)CN1CCN(Cc2c(-c3ccc(Cl)cc3)nc3ccc(-c4ccccc4)cn23)CC1 [Compound 223]
+++ (pIC50 ≧ 6.00)	COCC(=O)N1CCN(Cc2c(-c3ccc(Cl)cc3)nc3ccc(-c4c(F)cccc4F)cn23)CC1 [Compound 225]
+++ (pIC50 ≧ 6.00)	CC(=O)N1CCN(Cc2c(-c3ccc(Cl)cc3)nc3ccc(-c4c(F)cccc4F)cn23)CC1 [Compound 226]
+− (pIC50 < 4.00)	CN(CC(=O)N(C)C)Cc1c(-c2ccc(Cl)cc2)nc2ccc(-c3ccccc3)cn12 [Compound 228]
+++ (pIC50 ≧ 6.00)	O=C(c1cocn1)N1CCN(Cc2c(-c3ccc(Cl)cc3)nc3ccc(-c4ccccc4)cn23)CC1 [Compound 229]
+++ (pIC50 ≧ 6.00)	O=C(c1ccc(=O)[nH]c1)N1CCN(Cc2c(-c3ccc(Cl)cc3)nc3ccc(-c4ccccc4)cn23)CC1 [Compound 230]
+++ (pIC50 ≧ 6.00)	CC(=O)N1CCCN(Cc2c(-c3ccc(Cl)cc3)nc3ccc(-c4ccccc4)cn23)CC1 [Compound 231]
+++ (pIC50 ≧ 6.00)	O=C(c1cnco1)N1CCN(Cc2c(-c3ccc(Cl)cc3)nc3ccc(-c4ccccc4)cn23)CC1 [Compound 233]
+++ (pIC50 ≧ 6.00)	O=C(c1ccncc1)N1CCN(Cc2c(-c3ccc(Cl)cc3)nc3ccc(-c4c(F)cccc4F)cn23)CC1 [Compound 235]
++ (pIC50 5.00-5.99)	Clc1ccc(-c2nc3ccc(C4CCOCC4)cn3c2CN2CCOCC2)cc1 [Compound 237]
